Measurements from patent US20140303092A1 (CHIMERIX, INC., priority 2011, published 2014).

Columns and labels:
[1] = clinical; details: human, in vivo
Procedure: The pharmacokinetics of HDP-CDV (oral solution) were investigated in a dose-escalation study in healthy volunteers (Study HDP-CDV-102) in which single doses of up to 2 mg/kg and multiple doses (3 doses, each separated by 6 days) of up to 1 mg/kg were administered.

[2] = tested on: ectromelia
[3] = tested on: AdV; test: In vitro antiviral activity in cell culture, AdV; type: cell-based; details: unidentified adenovirus
[4] = tested on: HHV-6(B); test: In vitro antiviral activity in cell culture, HHV-6(B); type: cell-based, human herpesvirus 6; details: Human betaherpesvirus 6, B-cell
[5] = Study HDP-CDV-112: mass balance and metabolite profiling of 14C-radiolabeled HDP-CDV; details: for metabolite AUC as share of total HDP-CDV-derived radioactivity AUC: plasma, through 24 h postdose
Procedure: The criteria for stopping urine and stool collection were assessed independently of each other.

Structure (SMILES) | Cmax and AUC versus dose [1] | accumulation on Day 12 [1] | time of Cmax after administration ([1]; po) [h] | in vitro pharmacological activity and cytotoxicity compared to HDP-CDV [2] | EC50 [3] [µM] | EC50 [4] [µM] | percent dose excreted in feces ([5]; drug-derived metabolites) [%] | percent dose excreted in urine ([5]; drug-derived metabolites) [%] | metabolite AUC as share of total HDP-CDV-derived radioactivity AUC [5]
Nc1ccn(C[C@@H](CO)OCP(=O)(O)O)c(=O)n1 [Cidofovir, cidofovir, reference compound] | increased approximately in proportion to dose | negligible accumulation | 9 to 15 | lower pharmacologic and cytotoxic activity | 1.3 | 5.4 |  |  | 
Nc1nc(O)c2ncn(COC(CO)CO)c2n1 [Ganciclovir, ganciclovir] |  |  |  |  | 4.5 to 33 | 5.9 |  |  | 
Nc1ccn(CC(CO)OCP(=O)(O)OCCCO)c(=O)n1 (stereo not drawn) [CMX103, 3-hydroxypropyl ester of CDV] |  |  |  | lower pharmacologic and cytotoxic activity |  |  | 6 | 21 | approximately 32%
Nc1ccn(C[C@@H](CO)OCP(=O)(O)OCCCOCCCC(=O)O)c(=O)n1 [CMX064, 4-(3-propoxy)butanoic acid ester of CDV] |  |  |  | lower pharmacologic and cytotoxic activity |  |  |  | 10 | ~23%
